Measurements taken from patent US20160017011A1, “PHF20 AND JMJD3 COMPOSITIONS AND METHODS OF USE IN CANCER IMMUNOTHERAPY” (priority 2013, published 2016).
Residues, ends and D or L forms follow the SMILES beside them. *: point of attachment. Cbz = O=C(OCc1ccccc1)*

Columns and labels:
[1] = system: PHF20938-946-specific CD8+ T cells; assay: Recognition of peptide-pulsed T2 cells by PHF20-specific T cells (IFN-γ release); type: cell-based, human; conditions: T cells generated from PBMCs of HLA-A2+ healthy donors; FIG. 9A
Description: (FIG. 9A) PHF20938-946-specific CD8^+ T cells were generated from normal donor PBMCs after in vitro stimulation with PHF20 peptides, and used to determine the recognition of T2 cells loaded with different concentrations of PHF20938-946, peptide, or a control peptide as a negative control. (FIG. 9B) PHF20938-946-specific T cells were cultured alone in medium or co-incubated with HLA-A2^+ PHF20^+ (MCF-7) or HLA-A2^− PHF20^+ (DU4475, MDA-MB-361) breast cancer cell lines. A normal breast epithelial cell line MCF-10A is included as a control. T cell activity was determined by measuring cytokine (IFN-γ) release. (FIG. 9C) PHF20938-946-specific CD8^+ T cells were tested for cytotoxicity against MCF-7 by the LDH assay. HLA-A2 negative PHF20^+ PC3 cells were used as a negative control in the LDH assay. Data are plotted as means t SD. Results are representative of three independent experiments. *P<0.05, **P<0.01, ***P<0.001 versus controls.
Furthermore, PHF20-specific T cells could lyse HLA-A2^+ and PHF20^+ MCF-7 breast cancer cells (FIG. 9C).

[2] = system: PHF20 protein; assay: PHF20 protein amounts after MG132 treatment; type: cell-based; conditions: even when both Trim26 and Jmjd3 were overexpressed
Excerpt: (§1) Jmjd3-Trim26 is responsible for the enhanced reprogramming efficiency observed in Jmjd3-1-MEFs or in Dox-treated Tet-O-PHF20 MEFs.

[3] = system: iPSC colony formation; assay: iPSC colony formation and cell death after MG132 treatment; type: cell-based
Description: Mouse iPSCs were generated as previously described (Takahashi et al., 2007a) with some minor modifications. Briefly, MEFs (1-8×10^4/well) were seeded on irradiated-MEFs in a 6-well plate. On the next day, the cells were transduced with an equal amount of lentiviruses expressing the four factors and rtTA. The following day, transduced-MEFs were cultured with mESC medium containing 2 μg/mL Dox for 14 days. Tet-O-4F MEFs were used to generate iPSCs by treating MEFs with Dox in mESC medium. The efficiency of iPSC formation as calculated based on the number of AP positive iPSC colonies and the initial cell number of seeded MEFs. Human iPSCs were generated as previously described (Park et al., 2008).
as §1

Molecule	recognition of peptide-pulsed cells by PHF20-specific T cells [1]	amounts of PHF20 protein [2]	cell death ([3]; MG132 treatment during reprogramming)	iPSC colony formation ([3]; after MG132 treatment)
WQFNLLTHV (PHFP 2)	capable of recognizing	–	–	–
CC(C)C[C@@H](C=O)NC(=O)[C@H](CC(C)C)NC(=O)[C@H](CC(C)C)NC(=O)OCc1ccccc1 [MG132] (Cbz-Leu-Leu-Leu-aldehyde)	–	increased the amounts of PHF20 protein	caused cell death	no iPSC colony formation was observed
